In patent publication US20250051281A1, “CRYSTALLINE FORM OF AROMATIC RING DERIVATIVE, AND PREPARATION METHOD THEREFOR AND APPLICATION THEREOF” (SHANGHAI JEMINCARE PHARMACEUTICAL CO., LTD, priority 2021, published 2025):

Columns and labels:
Assay type in all cases: physicochemical
[1] = Stability test of crystal forms under high temperature, high humidity and light exposure (HPLC purity); conditions: for Purity after 30 days at a temperature of 25° C. with a relative humidity of 90% ± 5%: 90% ± 5% RH; for Purity after 30 days at a temperature of 25° C. with a relative humidity of 90% ± 5% / Purity after 30 days at high temperature (60° C.) / Purity after 30 days at a light intensity of 4500 Lx ± 500 Lx / Initial purity: HPLC purity; for Initial purity: before stress conditions
Text: (§1) The high-performance liquid chromatography (HPLC) analysis method used in the present disclosure is as follows: an Agilent 1260 was used to test the purity and stability of the sample under the conditions shown in Table 18.
(§2) Consequently, the inventors selected four crystal forms with good reproducibility and ease of purification: crystal forms A, B, G, and Q. These crystal forms were subjected to stability tests under identical conditions of high temperature, high humidity, and light exposure.

[2] = Changes in shape of crystal forms under high temperature, high humidity and light exposure (Table 26)
Text: as §2

[3] = Purity of crystal forms at storage conditions of 25° C. and 40° C. (Table 27)
Method: as §1
The purity of crystal forms A, B, G, and Q, under identical mass and packaging conditions, was investigated at storage conditions of 25° C. and 40° C., as shown in Table 27.

[4] = Stability verification of crystal form G in different solvents (XRPD form after slurry or vapour exposure); conditions: room temperature, dried under vacuum at 50° C. for 2 hours
Method: The X-ray powder diffraction analysis method used in the present disclosure is as follows: X-ray powder diffraction testing was conducted at room temperature using a Bruker D2 PHASER diffractometer (300 W low-power X-ray emitter). During the test, a silicon wafer was used to sustain the sample powder, and an X-ray Cu (Kα) tube was used, with a Kα2/Kα1 intensity ratio of 0.50 (1.54439 Å/1.5406 Å). The instrument was set to 30 kV and 10 mA, with a step size of 0.02° (2θ), a scanning time of 0.15 s per step, for a total of 1837 steps.
Method 1: The crystal form G (50 mg) was added to 0.5 mL of the corresponding solvent (the solvent may be EtOH, H2O, or a mixture of EtOH/H2O in the ratios of 970/30, 927/73, 855/145, 704/296, v/v).
Method 2: The crystal form G (15 mg) was placed in a 4 mL glass vial, which was then placed inside a 20 mL glass vial containing 3 mL of a volatile solvent (which may be MeOH or EtOH). The 20 mL glass vial was tightly capped and left to stand at room temperature for approximately one week.

[5] = High Temperature (60° C.), 5 Days
[6] = High Temperature (60° C.), 10 Days
[7] = High Temperature (60° C.), 30 Days
[8] = Light intensity of 4500 Lx ± 500 Lx, 5 Days
[9] = Light intensity of 4500 Lx ± 500 Lx, 10 Days
[10] = Light intensity of 4500 Lx ± 500 Lx, 30 Days
[11] = Temperature of 25° C., relative humidity of 90% ± 5%, 5 Days
[12] = Temperature of 25° C., relative humidity of 90% ± 5%, 10 Days
[13] = Temperature of 25° C., relative humidity of 90% ± 5%, 30 Days

| Compound | Purity after 30 days at a temperature of 25° C. with a relative humidity of 90% ± 5% [1] [%] | Purity after 30 days at high temperature (60° C.) [1] [%] | Purity after 30 days at a light intensity of 4500 Lx ± 500 Lx [1] [%] | Initial purity [1] [%] | Shape (appearance) [2, 5] | Shape (appearance) [2, 6] | Shape (appearance) [2, 7] | Shape (appearance) ([2]; Initial State) | Shape (appearance) [2, 8] | Shape (appearance) [2, 9] | Shape (appearance) [2, 10] | Shape (appearance) [2, 11] | Shape (appearance) [2, 12] | Shape (appearance) [2, 13] | Purity on storage ([3]; 25° C., 0 Days) [%] | Purity on storage ([3]; 25° C., 15 Days) [%] | Purity on storage ([3]; 25° C., 30 Days) [%] | Purity on storage ([3]; 25° C., 45 Days) [%] | Purity on storage ([3]; 25° C., 60 Days) [%] | Purity on storage ([3]; 25° C., 90 Days) [%] | further results |
| --- | --- | --- | --- | --- | --- | --- | --- | --- | --- | --- | --- | --- | --- | --- | --- | --- | --- | --- | --- | --- | --- |
| Cc1c(CCC(=O)O)[nH]c2ccc(OCc3ccc(C4CCCC4)c(C(F)(F)F)c3)cc12 [Crystal form A] | 98.49 | 94.57 | 94.45 | 99.28 | Off-white | Pale yellow | Yellow solid | Off-white | Off-white | Pale yellow | Yellow solid | Off-white | Off-white | Off-white | 99.03 | 98.91 | 98.93 | 98.87 | 98.85 | 98.73 | Purity on storage ([3]; 40° C., 0 Days): 99.03%; Purity on storage ([3]; 40° C., 15 Days): 98.73%; Purity on storage ([3]; 40° C., 30 Days): 98.42%; Purity on storage ([3]; 40° C., 45 Days): 98.30%; Purity on storage ([3]; 40° C., 60 Days): 98.15%; Purity on storage ([3]; 40° C., 90 Days): 97.69% |
| Cc1c(CCC(=O)O)[nH]c2ccc(OCc3ccc(C4CCCC4)c(C(F)(F)F)c3)cc12 [Crystal form B] | 98.50 | 97.21 | 94.55 | 99.44 | Off-white | Off-white | Off-white | Off-white | Off-white | Pale yellow | Yellow solid | Off-white | Off-white | Off-white | 99.14 | 99.05 | 99.00 | 98.93 | 98.94 | 98.86 | Purity on storage ([3]; 40° C., 0 Days): 99.14%; Purity on storage ([3]; 40° C., 15 Days): 98.88%; Purity on storage ([3]; 40° C., 30 Days): 98.73%; Purity on storage ([3]; 40° C., 45 Days): 98.68%; Purity on storage ([3]; 40° C., 60 Days): 98.66%; Purity on storage ([3]; 40° C., 90 Days): 98.40% |
| Cc1c(CCC(=O)[O][Ca][O]C(=O)CCc2[nH]c3ccc(OCc4ccc(C5CCCC5)c(C(F)(F)F)c4)cc3c2C)[nH]c2ccc(OCc3ccc(C4CCCC4)c(C(F)(F)F)c3)cc12 [Crystal form G] | 98.78 | 99.12 | 96.02 | 99.60 | Off-white solid | Off-white solid | Off-white solid | Off-white solid | Off-white solid | Pale yellow | Yellow solid | Off-white solid | Off-white solid | Off-white solid | 99.48 | 99.42 | 99.43 | 99.43 | 99.41 | 99.36 | Stability under high temperature, high humidity, and light exposure conditions compared to the other crystal forms ([1]; summary of Tables 25 and 26, versus crystal forms A, B, Q): higher stability; Purity on storage ([3]; 40° C., 0 Days): 99.48%; Purity on storage ([3]; 40° C., 15 Days): 99.28%; Purity on storage ([3]; 40° C., 30 Days): 99.27%; Purity on storage ([3]; 40° C., 45 Days): 99.24%; Purity on storage ([3]; 40° C., 60 Days): 99.16%; Purity on storage ([3]; 40° C., 90 Days): 99.01%; Stability when stored at 25° C. and 40° C. for 90 days ([3]; summary of Table 27, 90 days): higher stability; Crystal form obtained after stirring in solvent ([4]; EtOH, H2O or EtOH/H2O mixtures, 4 days): obtain the crystal form G; Crystal form obtained after exposure to volatile solvent vapour ([4]; MeOH or EtOH vapour, approximately one week): obtain the crystal form G |
